Assay results published in patent publication US10167299B2, “1-(3-aminopropyl) substituted cyclic amine compounds, preparation method therefor, and pharmaceutical compositions and uses thereof” (SHANGHAI INSTITUTE OF MATERIA MEDICA, CHINESE ACADEMY OF …, priority 2013, dated 2019).
Converted amounts (≈) assume the structure as drawn. Like-named read-outs stand apart in the source and are kept apart here.

Tests used:
[1] = Cytotoxicity (CC50) in TZM-bl cells; type: cell-based; conditions: human
HIV-1SF162 virus strain = test: Inhibition activity on TZM-bl cells infected with HIV-1SF162; conditions: for EC50: Human immunodeficiency virus 1, TZM-bl; for therapeutic index (TI): TZM-bl cells infected with HIV-1SF162
CCR5 protein = test: Thermal stability of protein test (CPM-assay); type: binding; conditions: for Tm (° C.): thermal stability of CCR5 protein with compound, CPM dye
Excerpt: Experimental theory: many cysteines are present in CCR5 protein sequence. Cysteines located in loop region form disulfide bonds to stabilize the tertiary structure of the protein. Some free cysteines in reduced state are located in the transmembrane region. Under excitation by incident light of 387 nm, the combination of free sulfhydryl and fluorescent dye CPM can emit excitation light of 436 nm. […] The free sulfhydryls originally located in the transmembrane region expose and combine with the fluorescent dye. And then the detector will detect changes in signal enhancement. Therefore, the thermal stability of membrane proteins can be determined according to the temperature (Tm) at the midpoint of changes in signal intensity.
Experimental steps: Upon preliminary purification, the obtained protein solution was transferred into a small concentration tube (100 kd, 500 ul) for concentration (1000 rcf, 12 min, 4° C.). After centrifugation, the concentration tube was taken out and flicked to prevent protein coagulation due to high local concentration. The final concentrated volume was about 50 μl. 117 μl of purified solution (volume is suitable to make the total volume up to 120 μl), 1 μl fluorescent dye cpm (in-house prepared) and 2 μl of concentrated protein solution (the amount of added protein is 3-5 μg according to the calculated concentration of the protein solution and the concentrated volume) were added to 2 ml Ependorf tube and incubated at room temperature for 20 min. And then the mixture was added to the cuvette (Qwan) and put in the testing equipment Cary, wherein the surface of the frosted glass faced out. The temperature was set in the range of 4-90° C. with 1° C. increase per minute and the program was run. Tm value can be obtained by processing the data and graph with a mapping software and can be used to compare the difference of protein thermal stability under different conditions.

CCR5 = CCR5 (Homo sapiens (Human), UniProt P51681); test: Calcium flux inhibition experiment; type: cell-based; conditions: for IC50: HEK293/CCR5-Gα16 cell line, calcium flux, read-out: CCR5 IC50; for calcium influx inhibition effect in words, versus positive control compounds: conclusion from Table 1
Chain of CCR5 (P51681 whole entry): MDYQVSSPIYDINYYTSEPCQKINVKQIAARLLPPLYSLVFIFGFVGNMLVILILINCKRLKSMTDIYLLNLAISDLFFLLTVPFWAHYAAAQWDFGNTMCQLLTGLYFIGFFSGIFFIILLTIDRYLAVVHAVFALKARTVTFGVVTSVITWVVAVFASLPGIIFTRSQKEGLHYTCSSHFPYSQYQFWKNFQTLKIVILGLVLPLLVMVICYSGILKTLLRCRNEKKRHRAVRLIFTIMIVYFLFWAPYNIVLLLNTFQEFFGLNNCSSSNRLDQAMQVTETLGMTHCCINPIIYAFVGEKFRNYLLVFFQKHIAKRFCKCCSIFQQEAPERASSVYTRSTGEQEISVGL

[2] = TZM-bl cells (Table 3), read-out: CC50

Row | SMILES | CC50 [1] [µg/mL] | EC50 (HIV-1SF162 virus strain) [µg/mL] | therapeutic index (TI) (HIV-1SF162 virus strain) | cytotoxicity in vitro and therapeutic index in words, versus positive control compound (HIV-1SF162 virus strain; TZM-bl cells infected with HIV-1SF162, conclusion from Table 3) | protein stability effect in words, versus positive control compound (CCR5 protein; conclusion from Table 2) | Tm (° C.) (CCR5 protein) [°C] | IC50 (CCR5) [nM] | calcium influx inhibition effect in words, versus positive control compounds (CCR5) | CC50 [1, 2] [µg/mL]
1 | Cc1nnc(C(C)C)n1C1CC2CCC(C1)N2CC[C@H](NC(=O)C1CCCC1)c1ccsc1 (stereo partly drawn) [Compound 26, N-[(1S)-3-[exo-3(3-isopropyl-5-methyl-4H-1,2,4-triazol-4-yl)-8-azabicyclo[3.2.1]octane-8-yl]-1-(thiophen-3-yl)propyl]cyclopentane-1-carboxamide] | > 200 | 0.00558 (≈ 0.0119 µM) | >35842.29 | better than positive control compound | comparable with the positive control compound | 71.02 | 5.06 | better than the positive control compounds | –
2 | Cc1nnc(C(C)C)n1C1CC2CCC(C1)N2CC[C@H](NC(=O)C1CCCCC1)c1ccsc1 (stereo partly shown) [Compound 24] | – | – | – | – | – | 62.31 | 44.6 | – | –
3 | CC(=O)NC(CCN1C2CCC1CC(n1c(C)nnc1C(C)C)C2)c1cccs1 (stereo not drawn) [Compound 4, N-[3-[exo-3-(3-isopropyl-5-methyl-4H-1,2,4-triazol-4-yl)-8-azabicyclo[3.2.1]octane-8-yl]-1-(thiophen-2-yl)propyl]acetamide] | – | 1.46 (≈ 3.51 µM) | 29.29 | – | – | 65.64 | 15 | – | 42.8 (≈ 103 µM)
4 | Cc1nnc(C(C)C)n1C1CCN(CC[C@H](NC(=O)C2CCCCC2)c2cccnc2)CC1 [Compound 7, N-[(1S)-3-[4-(3-isopropyl-5-methyl-4H-1,2,4-triazol-4-yl)-piperidin-1-yl]-1-(pyridin-3-yl)propyl]cyclohexane-1-carboxamide] | – | 2.34 (≈ 5.17 µM) | 50.31 | – | – | 57.21 | 35.2 | – | > 100
5 | Cc1nnc(C(C)C)n1C1CCN(CC[C@H](NC(=O)C2CCCC2)c2cccnc2)CC1 [Compound 9, N-[(1S)-3-[4-(3-isopropyl-5-methyl-4H-1,2,4-triazol-4-yl)-piperidin-1-yl]-1-(pyridin-3-yl)propyl]cyclopentane-1-carboxamide] | – | 1.81 (≈ 4.13 µM) | 55.42 | – | – | 61.32 | 79.3 | – | > 100
6 | Cc1nnc(C(C)C)n1C1CCN(CC[C@H](NC(=O)C2CCCCC2)c2cccs2)CC1 [Compound 15, N-[(1S)-3-[4-(3-isopropyl-5-methyl-4H-1,2,4-triazol-4-yl)-piperidin-1-yl]-1-(thiophen-2-yl)propyl]cyclohexane-1-carboxamide] | – | 0.316 (≈ 0.69 µM) | >632.87 | – | – | 64.30 | 9.22 | comparable to the positive control compounds | > 200
7 | CCC1CCC(C(=O)N[C@@H](CCN2C3CCC2CC(n2c(C)nnc2C(C)C)C3)c2cccs2)CC1 (stereo partly shown) [Compound 19] | 85.7 (≈ 168 µM) | 0.00959 (≈ 0.0187 µM) | 8940.56 | – | – | 69.20 | 21.5 | – | –
8 | Cc1nnc(C(C)C)n1C1CCN(CC[C@H](NC(=O)C2CCC(F)(F)CC2)c2ccsc2)CC1 [Compound 21, 4,4-difluoro-N-[(1S)-3-[4-(3-isopropyl-5-methyl-4H-1,2,4-triazol-4-yl)-piperidin-1-yl]-1-(thiophen-3-yl)propyl]cyclohexane-1-carboxamide] | – | 0.15 (≈ 0.304 µM) | >1333.96 | – | – | 64.68 | 11.9 | comparable to the positive control compounds | > 200
9 | Cc1nnc(C(C)C)n1C1CCN(CC[C@H](NC(=O)C2CCC(F)(F)CC2)c2cccs2)CC1 [Compound 13, 4,4-difluoro-N-[(1S)-3-[4-(3-isopropyl-5-methyl-4H-1,2,4-triazol-4-yl)-piperidin-1-yl]-1-(thiophen-2-yl)propyl]cyclohexane-1-carboxamide] | – | 0.183 (≈ 0.371 µM) | >1093.14 | – | – | 65.32 | 3.4 | better than the positive control compounds | > 100
10 | CC(=O)NC(CCN1CCC(n2c(C)nnc2C(C)C)CC1)c1cccs1 (stereo not shown) [Compound 2, N-[3-[4-(3-isopropyl-5-methyl-4H-1,2,4-triazol-4-yl)-piperidin-1-yl]-1-(thiophen-2-yl)propyl]acetamide] | – | 0.326 (≈ 0.837 µM) | >306.75 | – | – | 65.23 | 32.6 | – | > 100
11 | Cc1ccc([C@H](CCN2C3CCC2CC(n2c(C)nnc2C(C)C)C3)NC(=O)C2CCCC2)s1 (stereo partly drawn) [Compound 31, N-[(1S)-3-[exo-3-(3-isopropyl-5-methyl-4H-1,2,4-triazol-4-yl)-8-azabicyclo[3.2.1]octane-8-yl]-1-(5-methylthiophen-2-yl)propyl]cyclopentane-1-carboxamide] | > 200 | 0.033 (≈ 0.0682 µM) | >5714.29 | – | – | – | 9.76 | comparable to the positive control compounds | –
12 | Cc1nnc(C(C)C)n1C1CCN(CCC(NC(=O)C2CCC(F)(F)CC2)c2cccs2)CC1 (stereo not shown) [Compound 1, 4,4-difluoro-N-[3-[4-(3-isopropyl-5-methyl-4H-1,2,4-triazol-4-yl)-piperidin-1-yl]-1-(thiophen-2-yl)propyl]cyclohexane-1-carboxamide] | – | 0.29 (≈ 0.587 µM) | >340.14 | – | – | 60.59 | 36.6 | – | > 100
13 | COC(=O)N1CCc2c(nc(C)n2C2CC3CCC(C2)N3CC[C@H](NC(C)=O)c2ccc(Cl)s2)C1 (stereo partly drawn) [Compound 126, Methyl 1-{(endo)-8-[(S)-3-acetamido-3-(5-chlorothiophen-2-yl)-propyl]-8-azabicyclo[3.2.1]octan-3-yl}-2-methyl-1,4,6,7-tetrahydro-5H-imidazo[4,5-c]pyridine-5-carboxylate] | > 200 | 0.091 (≈ 0.175 µM) | >2207.68 | – | – | – | 22 | – | –
14 | Cc1nnc(C(C)C)n1C1CCN(CC[C@H](NC(=O)C2CCCCC2)c2ccsc2)CC1 [Compound 23, N-[(1S)-3-[4-(3-isopropyl-5-methyl-4H-1,2,4-triazol-4-yl)-piperidin-1-yl]-1-(thiophen-3-yl)propyl]cyclohexane-1-carboxamide] | – | 0.06 (≈ 0.131 µM) | >3332.78 | – | – | 63.90 | 27.3 | – | > 200
15 | CCC(=O)N1CCc2c(nc(C)n2C2CC3CCC(C2)N3CC[C@H](NC(C)=O)c2ccc(F)s2)C1 (stereo partly drawn) [Compound 134, N-{(1S)-3-[(3-endo)-3-(5-propionyl-2-methyl-4,5,6,7-tetrahydro-1H-imidazo[4,5-c]pyridin-1-yl)-8-azabicyclo[3.2.1]octane-8-yl]-1-(5-fluorothiophen-2-yl)-propyl}acetamide] | > 200 | 0.113 (≈ 0.225 µM) | >1772.41 | – | – | – | 22.1 | – | –
16 | Cc1nnc(C(C)C)n1C1CCN(CC[C@H](NC(=O)C2CCCC2)c2ccsc2)CC1 [Compound 25, N-[(1S)-3-[4-(3-isopropyl-5-methyl-4H-1,2,4-triazol-4-yl)-piperidin-1-yl]-1-(thiophen-3-yl)propyl]cyclopentane-1-carboxamide] | – | 0.168 (≈ 0.379 µM) | >1190.41 | – | – | 62.31 | 37.9 | – | > 200
17 | CC(=O)N[C@@H](CCN1C2CCC1CC(n1c(C)nc3c1CCN(C(=O)C1CC1)C3)C2)c1ccc(Cl)s1 (stereo partly drawn) [Compound 130, N-{(1S)-3-[(3-endo)-3-(5-cyclopropionyl-2-methyl-4,5,6,7-tetrahydro-1H-imidazo[4,5-c]pyridin-1-yl)-8-azabicyclo[3.2.1]octane-8-yl]-1-(5-chlorothiophen-2-yl)-propyl}acetamide] | > 200 | 0.053 (≈ 0.1 µM) | >2562.98 | – | – | – | 18.5 | – | –
18 | Cc1ccc([C@H](CCN2C3CCC2CC(n2c(C)nnc2C(C)C)C3)NC(=O)C2CCCCC2)s1 (stereo partly drawn) [Compound 30, N-[(1S)-3-[exo-3-(3-isopropyl-5-methyl-4H-1,2,4-triazol-4-yl)-8-azabicyclo[3.2.1]octane-8-yl]-1-(5-methylthiophen-2-yl)propyl]cyclohexane-1-carboxamide] | > 200 | 0.06 (≈ 0.121 µM) | >2150.54 | – | – | – | 24 | – | –
19 | Cc1nnc(C(C)C)n1C1CCN(CC[C@H](NC(=O)C2CCC(F)(F)CC2)c2cccnc2)CC1 [Compound 5, 4,4-difluoro-N-[(1S)-3-[4-(3-isopropyl-5-methyl-4H-1,2,4-triazol-4-yl)-piperidin-1-yl]-1-(pyridin-3-yl)propyl]cyclohexane-1-carboxamide] | – | – | – | – | – | 57.31 | 29.7 | – | –
